Legend:
guinea pig skin = experiment: Cutaneous irritation (Draize, Primary Irritation Index) after SADBE dermal patch in guinea pig; assay type: in vivo; conditions: for time to return to non-irritating levels post-dermal-application / time of peak cutaneous irritation: re-challenge
Procedure: Thirty (30) guinea pigs (15 female and 15 male) were utilized for this nonGLP study. Prior to and post dosing (dermal patches loaded with 20 microliters of 2, 6, or 18% SADBE drug solution) body weights, group food consumption, and Draize scoring for erythema, eschar formation, and edema at the dose site were be recorded. The dermal patch loaded with SADBE was applied to animals, and left in place for ˜12 hours plus/minus 1 hour. Following the ˜12 hour dosing period, patch sites was assessed by Draize scoring. […] After the 28 days assessment period, re challenge was performed, a second patch (not treated during the induction phase) was applied and assessed by Draize scoring.
Cutaneous irritation at the test site was observed and scored each day of the study by the Draize Scale for both Erythema & Eschar and Edema. The scale for each is in Tables 9 and 10, each on a 0-4 scale. The cumulative Erythema & Eschar and Edema score was the Primary Irritation Index score, which would therefore be on a 0-8 scale.
To assess the effect of the test article, SADBE (2%, 6%, and 18% in DMSO), on cutaneous skin irritation potential and sensitivity in guinea pig, Draize scoring system was used for dose site evaluation for erythema and eschar responses and for Edema. The test article (20 ul) was loaded on a dermal patch and applied to shaved guinea pig skin for 12 hrs (induction phase). The first dose site evaluation was performed for 30 days post application. A second dose was applied and dose site evaluation was also performed for approximately 5 weeks (challenge phase).
The Primary Irritation Index (pII) for each test article dose was calculated to assess the irritation potential. The Primary Irritation Index (pII) is the mean of the primary irritation score. The primary irritation score is the sum of the erythema/eschar score and the edema score, resulting in a maximal irritation potential of 8. The daily primary irritation index (pII) for each test article dose over the course of the study was calculated (FIG. 4). The pII is used to categorize the test article treatments as negligible to not irritating (0-0.9), slight (0.9-1.9), moderate (2-4.9) or severe (5-8) irritation potential. […] (FIG. 4.)

[1] = HPLC analysis of test article vials and patch controls in air (guinea pig study); assay type: physicochemical
Procedure: Squaric acid dibutyl ester (SADBE) at 2% (w/v) concentration in dimethylsulfoxide (DMSO) was added to a skin patch for dermal dosing of SADBE to test for a delayed-type hypersensitivity response or other skin irritation. In the laboratories of Squarex HPLC analysis was conducted to analyze for SADBE content, for analysis of the dose formulation prepared by APS and to determine stability of the test article in the dermal patches during the application time and to test for residual SADBE in the dermal patches after 12 hours applied to the animals.
The skin patches consisted of a polymer backing layer similar to 3M 9916 polyester nonwoven backing layer with adhesive, 3M 9733 polyester film laminate barrier layer, and Precision Fabrics Group 0700-00010 polyester gauze layer. The gauze was heat sealed to the barrier layer. The gauze patch area was 1.53 cm^2.
The tubes of DMSO with patches were transported to the Squarex laboratory, shaken at 200 rpm for 1 hour or more, and then the DMSO from each tube was placed in an injection vial and analyzed for SADBE content by HPLC on a C18 column with the program SADBE3-50 ul. SADBE elutes in this program at about 24.0 minutes and absorbs at 255 nm, so the area of the 24.0 min peak at 255 nm was used to quantify SADBE. The SADBE degradation product squaric acid monobutyl ester (SAMBE) was also quantified by 255 nm area under the curve at the elution time of 12.7 minutes.
The test article vials of 2%, 6%, and 18% SADBE dissolved in DMSO complied with specifications and had the predicted concentrations of SADBE at 24 hours after preparation.
The results indicated the SADBE was stable for more than 12 hours in the patches when not exposed to animal skin. There was no apparent loss of SADBE or conversion of SADBE to SAMBE.

[2] = 2% patch control, 20 ul, >12 hours in air
[3] = 2% vial, SADBE in DMSO, 24 hours after preparation
[4] = 6% patch control, 20 ul, >12 hours in air
[5] = 6% vial, SADBE in DMSO, 24 hours after preparation
[6] = 18% patch control, 20 ul, >12 hours in air
[7] = 18% vial, SADBE in DMSO, 24 hours after preparation

CCCCOc1c(OCCCC)c(=O)c1=O [SADBE, squaric acid dibutyl ester]
irritation category by Primary Irritation Index (pII) (guinea pig skin; 2% SADBE, 20 ul patch, 12 h, first dose): slightly irritating | duration of slight cutaneous irritation (guinea pig skin; 2% SADBE, induction): > 17 days | time to return to non-irritating levels post-dermal-application (guinea pig skin; 2% SADBE): ~9 days | irritation category by Primary Irritation Index (pII) (guinea pig skin; 2% SADBE, re-challenge (second dose)): moderately irritating | duration of slight to moderate cutaneous irritation (guinea pig skin; 2% SADBE, re-challenge at naive site): ~5 days | irritation category by Primary Irritation Index (pII) (guinea pig skin; 6% SADBE, 20 ul patch, 12 h, first dose): moderately irritating | duration of moderate cutaneous irritation (guinea pig skin; 6% SADBE, induction): ~18 days | time to return to slight irritation and not irritating levels (guinea pig skin; 6% SADBE, induction): ~23 days | time of peak cutaneous irritation (guinea pig skin; 6% SADBE): ~5 days | time to return to non-irritating levels post-dermal-application (guinea pig skin; 6% SADBE): ~14 days | irritation category by Primary Irritation Index (pII) (guinea pig skin; 6% SADBE, re-challenge (second dose)): moderately irritating | irritation category by Primary Irritation Index (pII) (guinea pig skin; 18% SADBE, 20 ul patch, 12 h, first dose): severely irritating | duration of moderate to severe cutaneous irritation (guinea pig skin; 18% SADBE, induction): ~21 days | time to return to slight irritation and not irritating levels post-dosing (guinea pig skin; 18% SADBE, induction): ~27 days | time of peak cutaneous irritation (guinea pig skin; 18% SADBE): ~8 days | time to return to non-irritating levels post-dermal-application (guinea pig skin; 18% SADBE): ~19 days | irritation category by Primary Irritation Index (pII) (guinea pig skin; 18% SADBE, re-challenge (second dose)): moderately irritating | % of expected SADBE [1, 2]: 106.0% | SAMBE as percent of SADBE [1, 2]: 0.95% | % of expected SADBE [1, 3]: 97.5% | SAMBE as percent of SADBE [1, 3]: 0.84% | % of expected SADBE [1, 4]: 94.5% | SAMBE as percent of SADBE [1, 4]: 1.05% | % of expected SADBE [1, 5]: 102.9% | SAMBE as percent of SADBE [1, 5]: 0.83% | % of expected SADBE [1, 6]: 100.3% | SAMBE as percent of SADBE [1, 6]: 1.01% | % of expected SADBE [1, 7]: 97.7% | SAMBE as percent of SADBE [1, 7]: 0.91% | time SADBE was stable in the patches ([1]; patches not exposed to animal skin, no apparent loss or conversion to SAMBE): more than 12 hours

Reference: patent publication US20210393932A1, “DERMAL PATCHES AND GLASS SWABS FOR APPLICATION OF TOPICAL IMMUNOSENSITIZERS” (Squarex, LLC, priority 2020, published 2021)
